Assay results as given in ChEMBL document CHEMBL1201862, “PubChem BioAssay data set” (2004).
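Where inhibition never reached the appropriate level, the endpoint shown equals the highest concentration tested. Otherwise, values were interpolated linearly from a five-concentration, 48-hour dose response in 96-well plates. Abbreviation: GI50, concentration required for 50% inhibition of growth.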 Activity calls are given as the source filed them. No stated cut-off is given here; in the data, active = GI50 up to about 1.1 µM and inactive = higher.

Columns and labels:
Assay in all cases: inhibition of tumour cell growth, NCI panel, 48 h
CAKI-1 = tested on: CAKI-1
HOP-62 = tested on: HOP-62
SF-539 = tested on: SF-539
UACC-62 = tested on: UACC-62
HCC 2998 = tested on: HCC 2998
EKVX = tested on: EKVX
M19-MEL = tested on: M19-MEL
OVCAR-8 = tested on: OVCAR-8
SK-MEL-28 = tested on: SK-MEL-28
DU-145 = tested on: DU-145
SK-OV-3 = tested on: SK-OV-3
MDA-MB-435 = tested on: MDA-MB-435
RPMI-8226 = tested on: RPMI-8226
A549 = tested on: A549
HOP-92 = tested on: HOP-92
HT-29 = tested on: HT-29
SW-620 = tested on: SW-620
KM12 = tested on: KM12
HCT-15 = tested on: HCT-15
KM-20L2 = tested on: KM-20L2
M14 = tested on: M14
RXF 393 = tested on: RXF 393
LXFL 529 = tested on: LXFL 529
NCI-H460 = tested on: NCI-H460
NCI-H522 = tested on: NCI-H522
U-251 = tested on: U-251
UACC-257 = tested on: UACC-257
MDA-N = tested on: MDA-N
Hs-578T = tested on: Hs-578T
XF498 = tested on: XF498
MOLT-4 = tested on: MOLT-4
786-0 = tested on: 786-0
SF-268 = tested on: SF-268
SR = tested on: SR
IGROV-1 = tested on: IGROV-1
COLO 205 = tested on: COLO 205
TK-10 = tested on: TK-10
SF-295 = tested on: SF-295
DMS-114 = tested on: DMS-114
DMS-273 = tested on: DMS-273
CCRF-CEM = tested on: CCRF-CEM
BT-549 = tested on: BT-549
MDA-MB-231 = tested on: MDA-MB-231
OVCAR-3 = tested on: OVCAR-3
SNB-78 = tested on: SNB-78
SNB-19 = tested on: SNB-19
A498 = tested on: A498
SK-MEL-2 = tested on: SK-MEL-2
SNB-75 = tested on: SNB-75
NCI-H226 = tested on: NCI-H226
HOP-18 = tested on: HOP-18
Malme-3M = tested on: Malme-3M
PC-3 = tested on: PC-3
T47D = tested on: T47D
SK-MEL-5 = tested on: SK-MEL-5
UO-31 = tested on: UO-31
OVCAR-5 = tested on: OVCAR-5
HL-60 = tested on: HL-60
SN12C = tested on: SN12C
OVCAR-4 = tested on: OVCAR-4
DLD-1 = tested on: DLD-1
K562 = tested on: K562
ACHN = tested on: ACHN
HCT-116 = tested on: HCT-116
LOX IMVI = tested on: LOX IMVI
RXF 631 = tested on: RXF 631
NCI-H23 = tested on: NCI-H23

Q: With `CCN(CC)CCNC(=O)c1nn(-c2ccc(Cl)cc2)c2c1CCc1cc(OC)ccc1-2` as the compound, how does the GI50 (CAKI-1) read?
A: The GI50 was 8.41 µM (inactive).

Q: And the GI50 (HOP-62)?
A: The GI50 was 13.3 µM (inactive).

Q: And the GI50 (SF-539)?
A: The GI50 was 4.21 µM (inactive).

Q: What about the GI50 (UACC-62) of the same compound?
A: Its GI50 is 2.77 µM (inactive).

Q: What about the GI50 (HCC 2998) of the same compound?
A: Its GI50 is 2.34 µM (inactive).

Q: And the GI50 (EKVX)?
A: The GI50 was 10.2 µM (inactive).

Q: What about the GI50 (M19-MEL) of the same compound?
A: Its GI50 is 2.7 µM (inactive).

Q: What about the GI50 (OVCAR-8) of the same compound?
A: Its GI50 is 12.3 µM (inactive).

Q: What about the GI50 (SK-MEL-28) of the same compound?
A: The GI50 was 2.03 µM (inactive).

Q: What about the GI50 (DU-145) of the same compound?
A: The GI50 was 15.3 µM (inactive).

Q: And the GI50 (SK-OV-3)?
A: The GI50 was 13.7 µM (inactive).

Q: And the GI50 (MDA-MB-435)?
A: The GI50 was 9.98 µM (inactive).

Q: What about the GI50 (RPMI-8226) of the same compound?
A: Its GI50 is 2.9 µM (inactive).

Q: What about the GI50 (A549) of the same compound?
A: Its GI50 is 8.22 µM (inactive).

Q: What about the GI50 (HOP-92) of the same compound?
A: Its GI50 is 5.51 µM (inactive).

Q: What about the GI50 (HT-29) of the same compound?
A: The GI50 was 2.64 µM (inactive).

Q: And the GI50 (SW-620)?
A: Its GI50 is 3.26 µM (inactive).

Q: And the GI50 (KM12)?
A: Its GI50 is 6.53 µM (inactive).

Q: What about the GI50 (HCT-15) of the same compound?
A: Its GI50 is 2.92 µM.

Q: What about the GI50 (KM-20L2) of the same compound?
A: The GI50 was 1.64 µM (inactive).

Q: What about the GI50 (M14) of the same compound?
A: The GI50 was 2.38 µM (inactive).

Q: What about the GI50 (RXF 393) of the same compound?
A: The GI50 was 3.04 µM (inactive).

Q: And the GI50 (LXFL 529)?
A: Its GI50 is 4.74 µM (inactive).

Q: And the GI50 (NCI-H460)?
A: The GI50 was 4.51 µM (inactive).

Q: What about the GI50 (NCI-H522) of the same compound?
A: Its GI50 is 4.52 µM (inactive).

Q: And the GI50 (U-251)?
A: The GI50 was 5.43 µM (inactive).

Q: And the GI50 (UACC-257)?
A: Its GI50 is 1.82 µM (inactive).

Q: What about the GI50 (MDA-N) of the same compound?
A: The GI50 was 3.51 µM (inactive).

Q: What about the GI50 (Hs-578T) of the same compound?
A: Its GI50 is 3.26 µM (inactive).

Q: And the GI50 (XF498)?
A: The GI50 was 5.14 µM (inactive).

Q: And the GI50 (MOLT-4)?
A: Its GI50 is 5.75 µM (inactive).

Q: And the GI50 (786-0)?
A: The GI50 was 3.52 µM (inactive).

Q: What about the GI50 (SF-268) of the same compound?
A: Its GI50 is 7.19 µM (inactive).

Q: What about the GI50 (SR) of the same compound?
A: Its GI50 is 4.28 µM (inactive).

Q: What about the GI50 (IGROV-1) of the same compound?
A: Its GI50 is 12.8 µM (inactive).

Q: And the GI50 (COLO 205)?
A: The GI50 was 2.26 µM (inactive).

Q: What about the GI50 (TK-10) of the same compound?
A: The GI50 was 11 µM (inactive).

Q: What about the GI50 (SF-295) of the same compound?
A: The GI50 was 3.74 µM (inactive).

Q: And the GI50 (DMS-114)?
A: Its GI50 is 2.67 µM (inactive).

Q: What about the GI50 (DMS-273) of the same compound?
A: Its GI50 is 2.62 µM (inactive).

Q: What about the GI50 (CCRF-CEM) of the same compound?
A: The GI50 was 5.3 µM (inactive).

Q: What about the GI50 (BT-549) of the same compound?
A: Its GI50 is 17.4 µM (inactive).

Q: And the GI50 (MDA-MB-231)?
A: Its GI50 is 12.1 µM (inactive).

Q: What about the GI50 (OVCAR-3) of the same compound?
A: The GI50 was 7.24 µM (inactive).

Q: What about the GI50 (SNB-78) of the same compound?
A: Its GI50 is 7.67 µM (inactive).

Q: And the GI50 (SNB-19)?
A: Its GI50 is 10.5 µM (inactive).

Q: What about the GI50 (A498) of the same compound?
A: Its GI50 is 8.61 µM (inactive).

Q: What about the GI50 (SK-MEL-2) of the same compound?
A: The GI50 was 1.68 µM (inactive).

Q: What about the GI50 (SNB-75) of the same compound?
A: Its GI50 is 5.21 µM (inactive).

Q: What about the GI50 (NCI-H226) of the same compound?
A: The GI50 was 9.38 µM (inactive).

Q: What about the GI50 (HOP-18) of the same compound?
A: The GI50 was 15.2 µM (inactive).

Q: What about the GI50 (Malme-3M) of the same compound?
A: Its GI50 is 1.6 µM (inactive).

Q: What about the GI50 (PC-3) of the same compound?
A: The GI50 was 12.6 µM (inactive).

Q: And the GI50 (T47D)?
A: Its GI50 is 4.3 µM (inactive).

Q: And the GI50 (SK-MEL-5)?
A: Its GI50 is 1.74 µM (inactive).

Q: What about the GI50 (UO-31) of the same compound?
A: Its GI50 is 2.49 µM (inactive).

Q: And the GI50 (OVCAR-5)?
A: Its GI50 is 4.75 µM (inactive).

Q: And the GI50 (HL-60)?
A: Its GI50 is 2.7 µM (inactive).

Q: What about the GI50 (SN12C) of the same compound?
A: The GI50 was 10.4 µM (inactive).

Q: And the GI50 (OVCAR-4)?
A: Its GI50 is 8.04 µM (inactive).

Q: What about the GI50 (DLD-1) of the same compound?
A: The GI50 was 3.54 µM (inactive).

Q: And the GI50 (K562)?
A: The GI50 was 2.77 µM (inactive).

Q: And the GI50 (ACHN)?
A: Its GI50 is 11.4 µM (inactive).

Q: What about the GI50 (HCT-116) of the same compound?
A: The GI50 was 3.56 µM (inactive).

Q: What about the GI50 (LOX IMVI) of the same compound?
A: Its GI50 is 2.03 µM (inactive).

Q: And the GI50 (RXF 631)?
A: Its GI50 is 1.65 µM (inactive).

Q: And the GI50 (NCI-H23)?
A: Its GI50 is 12.8 µM (inactive).

Q: Which results are given for `CCOc1ccccc1NC(=O)C(=O)Cc1nc2ccccc2s1`?
A: GI50 (CAKI-1): > 100 µM (inactive); GI50 (HOP-62): > 100 µM (inactive); GI50 (SF-539): > 100 µM (inactive); GI50 (UACC-62): > 100 µM (inactive); GI50 (HCC 2998): > 100 µM (inactive); GI50 (EKVX): > 100 µM (inactive); GI50 (M19-MEL): > 100 µM (inactive); GI50 (OVCAR-8): > 100 µM (inactive); GI50 (SK-MEL-28): > 100 µM (inactive); GI50 (SK-OV-3): > 100 µM (inactive); GI50 (A549): > 100 µM (inactive); GI50 (HOP-92): > 100 µM (inactive); GI50 (HT-29): > 100 µM (inactive); GI50 (SW-620): > 100 µM (inactive); GI50 (KM12): > 100 µM (inactive); GI50 (HCT-15): > 100 µM; GI50 (KM-20L2): > 100 µM (inactive); GI50 (M14): > 100 µM (inactive); GI50 (RXF 393): > 100 µM (inactive); GI50 (LXFL 529): > 100 µM (inactive); GI50 (NCI-H460): > 100 µM (inactive); GI50 (NCI-H522): > 100 µM (inactive); GI50 (U-251): > 100 µM (inactive); GI50 (UACC-257): > 100 µM (inactive); GI50 (XF498): > 100 µM (inactive); GI50 (MOLT-4): > 100 µM (inactive); GI50 (786-0): > 100 µM (inactive); GI50 (SF-268): > 100 µM (inactive); GI50 (SR): > 100 µM (inactive); GI50 (IGROV-1): > 100 µM (inactive); GI50 (COLO 205): > 100 µM (inactive); GI50 (TK-10): > 100 µM (inactive); GI50 (SF-295): > 100 µM (inactive); GI50 (DMS-114): > 100 µM (inactive); GI50 (DMS-273): > 100 µM (inactive); GI50 (CCRF-CEM): > 100 µM (inactive); GI50 (OVCAR-3): > 100 µM (inactive); GI50 (SNB-78): > 100 µM (inactive); GI50 (SNB-19): > 100 µM (inactive); GI50 (A498): > 100 µM (inactive); GI50 (SK-MEL-2): > 100 µM (inactive); GI50 (SNB-75): 77.1 µM (inactive); GI50 (NCI-H226): > 100 µM (inactive); GI50 (HOP-18): > 100 µM (inactive); GI50 (Malme-3M): > 100 µM (inactive); GI50 (SK-MEL-5): > 100 µM (inactive); GI50 (UO-31): > 100 µM (inactive); GI50 (HL-60): > 100 µM (inactive); GI50 (SN12C): > 100 µM (inactive); GI50 (OVCAR-4): 90.4 µM (inactive); GI50 (DLD-1): > 100 µM (inactive); GI50 (ACHN): > 100 µM (inactive); GI50 (HCT-116): > 100 µM (inactive); GI50 (RXF 631): > 100 µM (inactive); GI50 (NCI-H23): > 100 µM (inactive)
